Measured values published in patent publication US7981861B2, “Method of performing angioplasty with a GLP-1 molecule” (Amylin Pharmaceuticals, Inc., priority 2000, dated 2011).
“Also recorded” adds a separate entry of the source.

Tests used:
dogs = assay: 10-minute left circumflex coronary (LCx) occlusion/reperfusion, myocardial stunning in dogs; format: in vivo, dog; conditions: GLP-1 infusion for 24 hours beginning 1 minute prior to reperfusion
Protocol: Two dogs were studied at baseline before, during, and for 6 hours after a 10-minute complete left circumflex coronary (LCx) occlusion. Each dog underwent occlusion/reperfusion in the presence and absence of GLP-1 infusion for 24 hours, beginning 1 minute prior to reperfusion. GLP-1 infusion enhanced the recovery of ventricular wall regional dysfunction following 10 minutes of coronary artery occlusion.

Wistar rats = assay: LAD coronary artery occlusion (25 min) and 2-hour reperfusion, infarct size in anesthetized rats; format: in vivo, rat
Protocol: Wistar rats were anesthetized with thiopentone sodium. The left anterior descending (LAD) coronary artery was occluded. After 25 minutes of occlusion, reperfusion was allowed for 2 hours. This animal model has been described previously. Zacharowski, et al., Br. J. Pharmacol. 128; 945-952 (1999).
GLP-1 (1.5 μg/kg/min) was infused into anesthetized rats (n=10), commencing 10 minutes prior to reperfusion and continuing throughout the 2-hour reperfusion. Controls were sham operated with no occlusion (n=7), LAD occlusion+reperfusion+administration of saline (n=12), and LAD occlusion and reperfusion with a buffer of 10 mM sodium acetate, 5.05% D-mannitol, pH 4.5, (“vehicle”) at 1.5 mL/kg/hour (n=10).
Following reperfusion, the coronary artery was reoccluded, and Evans Blue dye (4 ml, 2% w/v) was injected into the left ventricle of the heart via a right carotid artery cannula. Evans Blue stains perfused myocardium, while occluded vascular bed remains uncolored. Animals were then killed by anesthetic overdose and the hearts were removed for examination. Hearts were sectioned and the right ventricular wall was removed. The area at risk (pink) was separated from the non-ischemic tissue (blue). The area at risk (pink) was then cut into smaller pieces and stained with p-nitroblue tetrazolium (NBT; 0.5 mg/ml) for 20 min. at 37° C. In the presence of intact dehydrogenase enzyme systems (viable myocardium), NBT forms a dark blue compound. Areas of necrosis lack the enzyme and remain unstained. Tissue was separated according to staining and weighed to determine infarct size as a percentage of the area at risk.

Substance: GLP-1
- stunning period during reperfusion after subcritical ischemia (dogs; dogs): significantly reduced; also recorded: reduced stunning
- recovery of ventricular wall regional dysfunction following 10 minutes of coronary artery occlusion (dogs; two dogs): enhanced
- infarct size as a percentage of the area at risk (Wistar rats; GLP-1 1.5 μg/kg/min infusion from 10 minutes prior to reperfusion and throughout 2-hour reperfusion, n=10, vehicle 46±4%, saline 50±3%): 31±4%
- reduction in infarct size compared with the vehicle group (Wistar rats; GLP-1 1.5 μg/kg/min infusion, statistically significant (p<0.05)): approximately 33%
- reduction of infarct size (summary statement) (Wistar rats; GLP-1 during last 10 min. of 25 min. ischemia and throughout 2-hour reperfusion, rats): 30%
- hemodynamics (Wistar rats; rats, GLP-1 during last 10 min. of ischemia and throughout 2-hour reperfusion): significantly improved
